In brackets after ≈: the same amount, converted by molar mass. Several values for one entry are separate records, joined by “and”; a condition that tells them apart may be missing. Equal values may be shown once.
Columns and labels:
[1] = Solubility in aqueous medium by 1H-NMR of saturated solutions
Description: Solubilities: Determination of substance solubilities were performed through ^1H-NMR spectroscopy with a Bruker Avance III NMR-spectrometer at 600 MHz. Saturated solutions of crystalline material were placed in an incubator at 25 °C and moved for 60 min^−1. Three samples of each investigated substance were left for three days under these conditions. Subsequently, 50 μL of the solution was removed from the samples and added to 450 μL of D2O for ^1H-NMR measurements. Solubility was determined by the ratio of integrated solvent to substance peak. Solubility values are presented as averages over the recorded samples with the error margin according to their standard deviation. […]
7 Solubility determination details
Solubilities were determined with 1H-NMR. Three samples for each single compound and three samples for each received maleate gained through grinding or solvent crystalliz ation were prepared. For this, dispersions of the investigated compounds in water were prepared in such a way that no complete dissolution would occur after three days at 25 °C in an incubator shaking with 60 min -1. Subsequently, 50 μL of liquid were removed from the samples and added to 450 μL of D 2O prepared in an NMR-tube. 1H-NMR measurements were conducted on a Bruker Avance III NMR-spectrometer at 600 MHz. Solubilities were determined by phase and baseline correction of the received spectrum in MestReNova software x64 14.2.0, application of D 2O shift on the solvent peak from the MestReNova […]
database. Integration of a chosen signal in the received spectrum and furt her integration of the solvent signal. The latter signal was always integrated in the borders of 5.000 – 4.600 ppm, the product signals were integrated in as narrow a range as possible ( Table S7). Trace water in D 2O w as considered negligible. Solubilities were calculated by the following […]
Where S p is the solubility of the API in gL -1, M p is the molar mass of the targeted API in g mol-1, I w is the value of the water integral received, n is an adjustment factor necessary if […]
= 2 because solvent is water), M w is the molar mass of water in gmol -1 and ρw is the density of water at 25 °C in gL-1. Error was calculated as the standard deviation of the three recorded samples according to Equation 2.
Here V is the standard deviation, x is the average of the three solubility values, x̅ each single solubility value and n the number of samples, three.

[2] = given enough time
Description: PXRD: Powder patterns were recorded on a Rigaku Miniflex 300 powder diffractometer with a Cu-Source and Kα radiation at […] in Θ/2Θ-geometry. Measurements were conducted at ambient temperature in a range of 5–50° 2Θ.

[3] = cited from earlier work
[4] = API solubility, aqueous medium, 25 °C, saturated solutions after three days, 1H-NMR, average of three samples, _M = mechanochemically prepared sample
[5] = product obtained by grinding (mechanochemical), water, 25 °C, three days
[6] = product obtained from solution (solvent product), water, 25 °C, three days
[7] = Table S7, water, 25 °C, three days, three samples, _sol = solvent crystallization, _mill = grinding
[8] = aqueous medium, 25 °C, three days

In the case of `CC(C)CC(CN)CC(=O)O.O=C(O)C=CC(=O)O` (racemic) [(rac)-3-MA, (rac)-Pregabalin maleate], the Solubility [1, 4] is reported as 719 gL^−1, the Solubility ([1]; API solubility, aqueous medium, 25 °C, saturated solutions after three days, 1H-NMR, average of three samples, _M = mechanochemically prepared sample, listed as (rac)-3-MA_M) is reported as 556 gL^−1 and the “Sp ± V (solubility of the API ± standard deviation)” value ([1]; Table S7, water, 25 °C, three days, three samples, _sol = solvent crystallization, _mill = grinding, listed as (rac)-3-MA_mill) is reported as 559 ± 19 gL-1. The “Sp ± V (solubility of the API ± standard deviation)” value ([1]; Table S7, water, 25 °C, three days, three samples, _sol = solvent crystallization, _mill = grinding, listed as (rac)-3-MA_sol) was 719 ± 10 gL-1, the Solubility [1, 5] was 556 ± 19 gL^−1 and the Solubility [1, 6] was 719 ± 10 gL^−1.

In the case of `CC(C)CC(CN)CC(=O)O.O=C(O)C=CC(=O)O` (racemic) [(rac)-3-MA-I, (rac)-Pregabalin maleate I], the “Phase stability of the solid form over time” value [2] is reported as “converts to (rac)-3-MA-II”.

For `CC(C)CC(CN)CC(=O)O` (racemic) [(rac)-3•H2O, (rac)-Pregabalin hydrate, reference compound], the “Sp ± V (solubility of the API ± standard deviation)” value [1, 7] was 33 ± 1 gL-1, the “Increase of API solubility in its maleate compared to the pure form” value (shortened to “Increase of API solubility”) ([1]; aqueous medium, 25 °C) was 23 fold and the solubility thermodynamic at 3 days ([1]; water) was 33 mg/mL.

For `NCC1(CC(=O)O)CCCCC1.O=C(O)C=CC(=O)O` [2-MA, Gabapentin maleate], the Solubility [1, 4] was 218 ± 8 gL^−1, the Solubility ([1]; API solubility, aqueous medium, 25 °C, saturated solutions after three days, 1H-NMR, average of three samples, _M = mechanochemically prepared sample, listed as 2-MA_M) was 218 gL^−1 and the “Sp ± V (solubility of the API ± standard deviation)” value [1, 7] was 218 ± 8 gL-1.

For `NCC(CC(=O)O)c1ccccc1.O=C(O)C=CC(=O)O` (stereo not drawn) [4-MA, Phenibut maleate], the Solubility [1, 4] was 124 gL^−1, the Solubility ([1]; API solubility, aqueous medium, 25 °C, saturated solutions after three days, 1H-NMR, average of three samples, _M = mechanochemically prepared sample, listed as 4-MA_M) was 128 gL^−1 and the “Sp ± V (solubility of the API ± standard deviation)” value ([1]; Table S7, water, 25 °C, three days, three samples, _sol = solvent crystallization, _mill = grinding, listed as 4-MA_mill) was 128 ± 8 gL-1. The “Sp ± V (solubility of the API ± standard deviation)” value ([1]; Table S7, water, 25 °C, three days, three samples, _sol = solvent crystallization, _mill = grinding, listed as 4-MA_sol) was 124 ± 4 gL-1 and the “Change of solubility of the maleate versus the pure API (in words)” value [1, 8] was “uniform increases in solubility”.

With `NCC(CC(=O)O)c1ccc(Cl)cc1.O=C(O)C=CC(=O)O` (stereo not drawn) [5-MA, Baclofen maleate] the Solubility [1, 4] was 6 gL^−1, the “Sp ± V (solubility of the API ± standard deviation)” value ([1]; Table S7, water, 25 °C, three days, three samples, _sol = solvent crystallization, _mill = grinding, listed as 5-MA_mill) was 6 ± 0.6 gL-1 and the “Sp ± V (solubility of the API ± standard deviation)” value ([1]; Table S7, water, 25 °C, three days, three samples, _sol = solvent crystallization, _mill = grinding, listed as 5-MA_sol) was 6 ± 0.3 gL-1. The “Change of solubility of the maleate versus the pure API (in words)” value [1, 8] was “uniform increases in solubility”.

In the case of `CC(C)C[C@H](CN)CC(=O)O` [(S)-3, (S)-Pregabalin, reference compound], the “Sp ± V (solubility of the API ± standard deviation)” value [1, 7] is reported as 41 ± 1 gL-1, the “Increase of API solubility” value ([1]; aqueous medium, 25 °C, listed as (S)-Pregabalin) is reported as 21 fold and the solubility thermodynamic at 3 days ([1]; water) is reported as 41 mg/mL (≈ 257 mM).

With `O=C(O)/C=C\C(=O)O` [MA, Maleic acid] the Solubility [1] was 687 ± 44 gL^−1, the “Sp ± V (solubility of the API ± standard deviation)” value [1] was 687 ± 44 gL-1 and the solubility thermodynamic at 3 days ([1]; water) was 687 mg/mL (≈ 5920 mM). For the same compound, the pKa1 [3] was 1.74 and the pKa2 [3] was 5.81.

In the case of `NCC1(CC(=O)O)CCCCC1` [compound 2, Gabapentin, reference compound], the “Sp ± V (solubility of the API ± standard deviation)” value [1, 7] is given as 174 ± 7 gL-1, the solubility thermodynamic at 3 days ([1]; water) is given as 174 mg/mL (≈ 1020 mM) and the “pKa of the acid function” value [3] is given as “around 4”.

In the case of `CC(C)C[C@H](CN)CC(=O)O` [compound 3, Pregabalin, reference compound], the “Increase of API solubility” value ([1]; aqueous medium, 25 °C, listed as Pregabalin) is listed as “up to twentyfold” and the “pKa of the acid function” value [3] is listed as “around 4”.

With `NCC(CC(=O)O)c1ccccc1` (stereo not drawn) [compound 4, Phenibut, reference compound] the “Sp ± V (solubility of the API ± standard deviation)” value [1, 7] was 15 ± 0.3 gL-1, the “Increase of API solubility” value ([1]; aqueous medium, 25 °C) was “eightfold” and the solubility thermodynamic at 3 days ([1]; water) was 15 mg/mL (≈ 83.7 mM). The “pKa of the acid function” value [3] was “around 4”.

For `NCC(CC(=O)O)c1ccc(Cl)cc1` (stereo not drawn) [compound 5, Baclofen, reference compound], the “Increase of API solubility” value [1] was “twofold”, the “Sp ± V (solubility of the API ± standard deviation)” value [1] was 3 ± 0.1 gL-1 and the solubility thermodynamic at 3 days ([1]; water) was 3 mg/mL (≈ 14 mM). The “pKa of the acid function” value [3] was “around 4”.

In the case of “(S)-Pregabalin maleate hydrate [(S)-3-MA•H2O]”, the Solubility [1, 4] is reported as 977 gL^−1, the Solubility ([1]; API solubility, aqueous medium, 25 °C, saturated solutions after three days, 1H-NMR, average of three samples, _M = mechanochemically prepared sample, listed as (S)-3-MA•H2O_M) is reported as 809 gL^−1 and the “Sp ± V (solubility of the API ± standard deviation)” value ([1]; Table S7, water, 25 °C, three days, three samples, _sol = solvent crystallization, _mill = grinding, listed as (S)-3-MA• H2O_mill) is reported as 809 ± 8 gL-1. The “Sp ± V (solubility of the API ± standard deviation)” value ([1]; Table S7, water, 25 °C, three days, three samples, _sol = solvent crystallization, _mill = grinding, listed as (S)-3-MA• H2O_sol) was 977 ± 79 gL-1, the Solubility [1, 5] was 809 ± 8 gL^−1 and the Solubility [1, 6] was 977 ± 79 gL^−1.

For Gabapentin maleate hydrate [2-MA•H2O], the Solubility [1, 4] was 241 ± 8 gL^−1 and 241 gL^−1 and the “Sp ± V (solubility of the API ± standard deviation)” value [1, 7] was 241 ± 8 gL-1.
